Experimental data taken from PubChem BioAssay (NCI).
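Tested at 5 concentrations; 48 h exposure; 96-well plates; endpoints linearly interpolated, else capped at highest concentration. GI50: concentration for 50% inhibition of growth. At the TGI there is no net growth.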

Legend:
Assay in all cases: NCI anticancer screen, dose series, 48 h
SK-MEL-5 melanoma = tested on: SK-MEL-5 melanoma
CAKI-1 renal = tested on: CAKI-1 renal
HCC-2998 colon = tested on: HCC-2998 colon
HOP-62 NSCLC = tested on: HOP-62 NSCLC
OVCAR-3 ovarian = tested on: OVCAR-3 ovarian
M14 melanoma = tested on: M14 melanoma
SW-620 colon = tested on: SW-620 colon
SF-295 CNS = tested on: SF-295 CNS
ACHN renal = tested on: ACHN renal
HS 578T breast = tested on: HS 578T breast

Row | SMILES | TGI (SK-MEL-5 melanoma) [µM] | TGI (CAKI-1 renal) [µM] | TGI (HCC-2998 colon) [µM] | TGI (HOP-62 NSCLC) [µM] | TGI (OVCAR-3 ovarian) [µM] | TGI (M14 melanoma) [µM] | TGI (SW-620 colon) [µM] | TGI (SF-295 CNS) [µM] | TGI (ACHN renal) [µM] | TGI (HS 578T breast) [µM] | GI50 (SK-MEL-5 melanoma) [µM] | GI50 (CAKI-1 renal) [µM] | GI50 (HCC-2998 colon) [µM] | GI50 (HOP-62 NSCLC) [µM] | GI50 (OVCAR-3 ovarian) [µM] | GI50 (M14 melanoma) [µM] | GI50 (SW-620 colon) [µM] | GI50 (SF-295 CNS) [µM] | GI50 (ACHN renal) [µM] | GI50 (HS 578T breast) [µM]
1 | COC1(OC)C2(Cl)C(Cl)=C(Cl)C1(Cl)C1c3ccc(C(C)=O)c4cccc(c34)C12 (stereo not given) | 27.7 | > 100 | 52.7 | > 100 | > 100 | > 96.4 | > 100 | > 100 | > 87.4 | > 100 |  |  |  |  |  |  |  |  |  | 
2 | CCNc1cc2oc(=O)cc(C(F)(F)F)c2cc1C | > 100 | > 100 | > 100 | > 100 | > 100 | > 100 | > 100 | > 100 | > 100 | > 100 |  |  |  |  |  |  |  |  |  | 
3 | Cc1cc(C(=O)Nc2cc(Oc3ccc4nc(NC(=O)C5CC5)cn4n3)ccc2C)n(C)n1 | > 10 | > 10 | > 10 | > 10 | > 10 | > 10 | > 10 | > 10 | > 10 | > 10 | > 10 | > 10 | > 10 | > 10 | > 10 | 5.51 | > 10 | > 10 | > 10 | 7.48
4 | COc1cccc(-n2ncc3c(N/N=C/c4ccc(C)cc4)ncnc32)c1 | > 25 | > 25 | > 25 | > 25 | > 25 | > 25 | > 25 | > 25 | > 25 | > 25 | > 25 | > 25 | > 25 | > 25 | > 25 | > 25 | > 25 | > 25 | > 25 | > 17.4
5 | COC12C=C/C(=C(/C(=O)OCCSc3ccnn3C)C(=O)CCCCCCCCC3(OC)C=C/C(=C(/C(=O)OCCSc4ccnn4C)C(=O)CCCCCCCC1)O3)O2 | 1.09 | > 32.5 | 1.11 | 2.81 | 2.77 | 2.4 | 5.38 | 2.93 | > 32.5 | > 32.5 | 0.581 | 1.18 | 0.584 | 0.95 | 0.966 | 0.873 | 1.07 | 0.948 | 1.07 | 1.23
6 | Cc1c(N)nc([C@H](CC(N)=O)NC[C@H](N)C(N)=O)nc1C(=O)N[C@H](C(=O)N[C@H](C)[C@@H](O)CC(=O)N[C@H](C(=O)NC(O[C@@H]1O[C@@H](C)[C@@H](N)[C@@H](O)[C@H]1O)C(O)c1nc(-c2nc(C(=O)NCCCCN)cs2)cs1)[C@@H](C)O)[C@@H](O[C@@H]1O[C@@H](CO)[C@@H](O)[C@H](O)[C@@H]1O[C@H]1O[C@H](CO)[C@@H](O)[C@H](OC(N)=O)[C@@H]1O)c1c[nH]cn1 (stereo not given in full) | > 50 | > 50 | > 50 | > 50 | > 50 | > 50 | > 50 | > 50 | > 50 | > 50 |  |  |  |  |  |  |  |  |  | 
7 | O=C(O)/C=C/c1ccc[c]([Sb](=[O])([OH])[OH])c1 | > 100 | > 100 | > 100 | > 100 | > 100 | > 100 | > 100 | > 100 | > 100 | > 100 | > 100 | > 100 | > 100 | > 100 | > 100 | > 100 | > 100 | > 100 | > 100 | > 100
